In ChEMBL document CHEMBL1159093, “Discovery and optimization of RO-85, a novel drug-like, potent, and selective P2X3 receptor antagonist” (Bioorg Med Chem Lett, 2010):

How the values were obtained:
[1] = molecular target: Beta-2 adrenergic receptor (Homo sapiens) (UniProt P07550); assay: Displacement of [3H](-)CGP 12177 from human recombinant beta2 adrenergic receptor expressed in CHO cells at 10 uM after 120 mins by scintillation counting; type: cell-based
[2] = molecular target: Histamine H1 receptor (Homo sapiens) (UniProt P35367); assay: Displacement of [3H]pyrilamine from human recombinant histamine H1 receptor expressed in HEK293 cells at 10 uM after 60 mins by scintillation counting; type: cell-based
[3] = molecular target: Beta-1 adrenergic receptor (Homo sapiens) (UniProt P08588); assay: Displacement of [3H]RX 821002 from human recombinant beta-1 adrenergic receptor expressed in HEK293 cells at 10 uM after 60 mins by scintillation counting; type: cell-based
[4] = species: Rattus norvegicus; assay: Displacement of [3H]batrachotoxinin from sodium channel site2 in rat cerebral cortex at 10 uM after 60 mins by scintillation counting; type: tissue-based
[5] = molecular target: Small conductance calcium-activated potassium channel (Rattus norvegicus) (UniProt P70604+P70606+P70605); assay: Displacement of [125I]apamin from SK […] channel in rat cerebral cortex at 10 uM after 60 mins by scintillation counting; type: tissue-based
[6] = molecular target: Substance-P receptor (Homo sapiens) (UniProt P25103); assay: Displacement of [125I]BH-SP from NK1 receptor in human U-373MG cells at 10 uM after 60 mins by scintillation counting; type: cell-based; conditions: U-373MG ATCC
[7] = molecular target: Sodium-dependent serotonin transporter (Homo sapiens) (UniProt P31645); assay: Displacement of [3H]imipramine from human recombinant SERT expressed in CHO cells at 10 uM after 60 mins by scintillation counting; type: cell-based
[8] = Metabolic stability in rat liver microsomes; type: ADME, Microsome; conditions: read-out: Stability
[9] = molecular target: Muscarinic acetylcholine receptor M5 (Homo sapiens) (UniProt P08912); assay: Displacement of [3H]4-DAMP from human recombinant muscarinic M5 receptor expressed in CHO cells at 10 uM after 60 mins by scintillation counting; type: cell-based
[10] = species: Rattus norvegicus; assay: Displacement of [3H]GABA from GABA receptor in rat cerebral cortex at 10 uM after 60 mins by scintillation counting; type: tissue-based
[11] = molecular target: Prostaglandin E2 receptor EP2 subtype (Homo sapiens) (UniProt P43116); assay: Displacement of [3H]PGE2 from human recombinant EP2 receptor expressed in HEK293 cells at 10 uM after 120 mins by scintillation counting; type: cell-based
[12] = molecular target: Sodium-dependent noradrenaline transporter (Homo sapiens) (UniProt P23975); assay: Displacement of [3H]nisoxetine from human recombinant NET expressed in CHO cells at 10 uM after 120 mins by scintillation counting; type: cell-based
[13] = Half life in po dosed rat; type: ADME, organism-based; conditions: in vivo
[14] = molecular target: T1, P2X purinoceptor 3 (Rattus norvegicus, UniProt P49654); assay: Antagonist activity at rat P2X3 receptor expressed in CHO cells; type: functional, cell-based
T1 sequence (P49654 whole entry): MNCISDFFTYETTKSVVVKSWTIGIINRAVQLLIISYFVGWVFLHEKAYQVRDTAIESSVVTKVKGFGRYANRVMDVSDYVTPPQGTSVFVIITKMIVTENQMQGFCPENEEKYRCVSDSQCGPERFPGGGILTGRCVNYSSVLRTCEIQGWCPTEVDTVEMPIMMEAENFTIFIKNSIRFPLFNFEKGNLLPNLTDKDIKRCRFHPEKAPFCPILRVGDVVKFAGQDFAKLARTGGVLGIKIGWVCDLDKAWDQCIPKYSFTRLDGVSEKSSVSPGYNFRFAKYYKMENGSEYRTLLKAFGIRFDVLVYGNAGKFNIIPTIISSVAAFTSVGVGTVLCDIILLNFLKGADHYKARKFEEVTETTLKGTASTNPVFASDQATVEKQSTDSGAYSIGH

[15] = molecular target: Muscarinic acetylcholine receptor M3 (Homo sapiens) (UniProt P20309); assay: Displacement of [3H]4-DAMP from human recombinant muscarinic M3 receptor expressed in CHO cells at 10 uM after 60 mins by scintillation counting; type: cell-based
[16] = molecular target: Muscarinic acetylcholine receptor M1 (Homo sapiens) (UniProt P11229); assay: Displacement of [3H]pirenzepine from human recombinant muscarinic M1 receptor expressed in CHO cells at 10 uM after 60 mins by scintillation counting; type: cell-based
[17] = molecular target: D(4) dopamine receptor (Homo sapiens) (UniProt P21917); assay: Displacement of [3H]methyl-spiperone from human recombinant D4.4 receptor expressed in CHO cells at 10 uM after 60 mins by scintillation counting; type: cell-based
[18] = molecular target: P2X purinoceptor 6 (Homo sapiens, UniProt O15547); assay: Antagonist activity at P2X6 receptor; type: functional
[19] = Inhibition of Cytochrome P450 at <15 uM; type: ADME
[20] = molecular target: 5-hydroxytryptamine receptor 2B (Homo sapiens) (UniProt P41595); assay: Displacement of [125I](+/-)DOI from human recombinant 5HT2B receptor expressed in CHO cells at 10 uM after 60 mins by scintillation counting; type: cell-based
[21] = molecular target: Type-1 angiotensin II receptor (Homo sapiens) (UniProt P30556); assay: Displacement of [125I][Sar1,Ile8]-AT-2 from human recombinant AT1 receptor expressed in HEK293 cells at 10 uM after 120 mins by scintillation counting; type: cell-based
[22] = molecular target: Endothelin receptor type B (Homo sapiens) (UniProt P24530); assay: Displacement of [125I]endothelin-1 from human recombinant ETB receptor expressed in CHO cells at 10 uM after 120 mins by scintillation counting; type: cell-based
[23] = species: Rattus norvegicus; assay: Displacement of [125I][Tyr4]bombesin from Bombesin receptor in rat cerebral cortex at 10 uM after 60 mins by scintillation counting; type: tissue-based
[24] = molecular target: Neuromedin-K receptor (Homo sapiens) (UniProt P29371); assay: Displacement of [3H]SR142801 from human recombinant NK3 receptor expressed in CHO cells at 10 uM after 120 mins by scintillation counting; type: cell-based
[25] = molecular target: L-type calcium channel (verapamil binding site) (Rattus norvegicus, UniProt P22002+P27732+Q02485); assay: Displacement of [3H]verapamil from verapamil binding site of L-type calcium channel in rat cerebral cortex at 10 uM after 120 mins by scintillation counting; type: tissue-based; conditions: probe [3H]verapamil, read-out: Activity
[26] = molecular target: 5-hydroxytryptamine receptor 5A (Homo sapiens) (UniProt P47898); assay: Displacement of [3H]LSD from human recombinant 5HT5A receptor expressed in HEK293 cells at 10 uM after 120 mins by scintillation counting; type: cell-based
[27] = species: Rattus norvegicus; assay: Displacement of [3H]a,b-MeATP from P2X receptor in rat urinary bladder at 10 uM after 120 mins by scintillation counting
[28] = molecular target: Thromboxane A2 receptor (Homo sapiens) (UniProt P21731); assay: Displacement of [3H]SQ29548 from human recombinant TP receptor expressed in HEK293 cells at 10 uM after 60 mins by scintillation counting; type: cell-based
[29] = molecular target: Melatonin receptor type 1A (Homo sapiens) (UniProt P48039); assay: Displacement of [125I]2-iodomelatonin from human recombinant MT1 receptor expressed in CHO cells at 10 uM after 60 mins by scintillation counting; type: cell-based
Melatonin receptor type 1A (Homo sapiens), sequence (P48039 whole entry): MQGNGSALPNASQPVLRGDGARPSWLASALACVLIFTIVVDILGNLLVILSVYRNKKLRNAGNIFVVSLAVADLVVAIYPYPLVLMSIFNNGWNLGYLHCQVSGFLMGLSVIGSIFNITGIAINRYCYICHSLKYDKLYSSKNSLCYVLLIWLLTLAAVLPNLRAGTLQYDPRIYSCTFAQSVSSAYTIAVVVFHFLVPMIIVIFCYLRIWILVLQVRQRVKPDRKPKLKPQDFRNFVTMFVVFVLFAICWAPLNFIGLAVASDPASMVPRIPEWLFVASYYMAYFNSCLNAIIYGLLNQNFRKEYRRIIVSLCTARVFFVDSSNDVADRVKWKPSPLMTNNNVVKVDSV

Muscarinic acetylcholine receptor M5 (Homo sapiens), sequence (P08912 whole entry): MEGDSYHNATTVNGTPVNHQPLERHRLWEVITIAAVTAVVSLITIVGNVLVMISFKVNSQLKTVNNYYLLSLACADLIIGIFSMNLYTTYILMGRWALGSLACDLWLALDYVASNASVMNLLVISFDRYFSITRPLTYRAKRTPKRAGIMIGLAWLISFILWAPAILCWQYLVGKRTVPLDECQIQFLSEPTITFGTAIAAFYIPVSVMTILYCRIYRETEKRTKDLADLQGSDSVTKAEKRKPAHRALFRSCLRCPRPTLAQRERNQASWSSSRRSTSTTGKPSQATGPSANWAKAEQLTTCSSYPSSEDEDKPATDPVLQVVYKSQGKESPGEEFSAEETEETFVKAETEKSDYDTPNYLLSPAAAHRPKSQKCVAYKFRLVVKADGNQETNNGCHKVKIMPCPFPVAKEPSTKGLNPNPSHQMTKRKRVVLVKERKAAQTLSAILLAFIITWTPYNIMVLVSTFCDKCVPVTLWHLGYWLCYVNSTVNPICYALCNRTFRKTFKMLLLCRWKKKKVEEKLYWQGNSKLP
Muscarinic acetylcholine receptor M3 (Homo sapiens), sequence (P20309 whole entry, looked up): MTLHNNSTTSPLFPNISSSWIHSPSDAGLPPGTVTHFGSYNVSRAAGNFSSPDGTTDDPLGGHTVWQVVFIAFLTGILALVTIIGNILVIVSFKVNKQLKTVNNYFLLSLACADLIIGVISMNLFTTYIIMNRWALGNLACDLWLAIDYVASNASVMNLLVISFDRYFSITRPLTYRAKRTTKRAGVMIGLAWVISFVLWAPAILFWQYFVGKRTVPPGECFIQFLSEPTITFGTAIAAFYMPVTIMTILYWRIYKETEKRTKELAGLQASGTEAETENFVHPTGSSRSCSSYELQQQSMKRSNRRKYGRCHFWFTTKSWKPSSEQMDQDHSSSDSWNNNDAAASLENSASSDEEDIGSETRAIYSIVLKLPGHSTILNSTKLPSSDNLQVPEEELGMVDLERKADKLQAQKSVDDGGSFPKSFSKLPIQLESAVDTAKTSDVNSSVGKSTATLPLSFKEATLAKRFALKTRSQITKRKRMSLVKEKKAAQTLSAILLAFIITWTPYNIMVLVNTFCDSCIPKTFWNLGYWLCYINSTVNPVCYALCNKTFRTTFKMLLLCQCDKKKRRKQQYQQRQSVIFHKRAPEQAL
Beta-1 adrenergic receptor (Homo sapiens), sequence (P08588 whole entry, looked up): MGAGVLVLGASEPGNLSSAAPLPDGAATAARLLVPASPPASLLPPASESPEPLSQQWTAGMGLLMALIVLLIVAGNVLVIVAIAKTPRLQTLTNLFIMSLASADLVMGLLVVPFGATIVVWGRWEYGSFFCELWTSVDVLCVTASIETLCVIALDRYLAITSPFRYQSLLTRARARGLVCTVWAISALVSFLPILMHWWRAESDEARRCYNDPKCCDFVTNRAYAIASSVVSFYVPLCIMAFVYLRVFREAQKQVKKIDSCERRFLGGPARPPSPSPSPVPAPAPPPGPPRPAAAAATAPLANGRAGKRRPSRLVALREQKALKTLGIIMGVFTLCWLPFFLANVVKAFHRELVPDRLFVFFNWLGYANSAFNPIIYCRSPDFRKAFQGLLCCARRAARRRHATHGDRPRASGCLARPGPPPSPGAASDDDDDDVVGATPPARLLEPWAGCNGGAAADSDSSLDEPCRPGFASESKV
Sodium-dependent serotonin transporter (Homo sapiens), sequence (P31645 whole entry, looked up): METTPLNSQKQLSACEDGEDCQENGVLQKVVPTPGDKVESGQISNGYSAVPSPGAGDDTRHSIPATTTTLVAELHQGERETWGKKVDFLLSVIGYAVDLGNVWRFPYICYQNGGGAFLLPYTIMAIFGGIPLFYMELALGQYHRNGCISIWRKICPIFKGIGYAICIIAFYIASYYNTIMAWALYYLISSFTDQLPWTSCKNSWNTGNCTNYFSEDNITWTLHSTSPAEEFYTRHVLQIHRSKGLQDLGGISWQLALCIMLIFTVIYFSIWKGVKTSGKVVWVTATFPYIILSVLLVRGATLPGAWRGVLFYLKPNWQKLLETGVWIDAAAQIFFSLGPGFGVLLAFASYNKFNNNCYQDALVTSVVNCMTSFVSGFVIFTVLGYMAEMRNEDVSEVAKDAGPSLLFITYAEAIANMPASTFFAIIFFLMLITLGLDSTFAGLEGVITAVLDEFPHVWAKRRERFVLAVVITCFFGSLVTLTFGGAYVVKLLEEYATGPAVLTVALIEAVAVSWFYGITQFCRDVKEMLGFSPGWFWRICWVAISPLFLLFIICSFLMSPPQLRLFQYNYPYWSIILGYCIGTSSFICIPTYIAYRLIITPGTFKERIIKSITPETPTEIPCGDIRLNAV
Thromboxane A2 receptor (Homo sapiens), sequence (P21731 whole entry): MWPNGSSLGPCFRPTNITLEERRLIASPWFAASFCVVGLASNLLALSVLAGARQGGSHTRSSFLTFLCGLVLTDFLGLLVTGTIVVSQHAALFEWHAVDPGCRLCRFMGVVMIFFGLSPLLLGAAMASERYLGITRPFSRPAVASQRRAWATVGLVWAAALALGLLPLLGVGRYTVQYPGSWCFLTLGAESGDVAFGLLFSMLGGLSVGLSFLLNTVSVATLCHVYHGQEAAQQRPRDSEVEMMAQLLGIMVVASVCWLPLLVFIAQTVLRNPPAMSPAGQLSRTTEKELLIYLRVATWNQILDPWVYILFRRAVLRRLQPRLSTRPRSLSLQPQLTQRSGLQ
Type-1 angiotensin II receptor (Homo sapiens), sequence (P30556 whole entry): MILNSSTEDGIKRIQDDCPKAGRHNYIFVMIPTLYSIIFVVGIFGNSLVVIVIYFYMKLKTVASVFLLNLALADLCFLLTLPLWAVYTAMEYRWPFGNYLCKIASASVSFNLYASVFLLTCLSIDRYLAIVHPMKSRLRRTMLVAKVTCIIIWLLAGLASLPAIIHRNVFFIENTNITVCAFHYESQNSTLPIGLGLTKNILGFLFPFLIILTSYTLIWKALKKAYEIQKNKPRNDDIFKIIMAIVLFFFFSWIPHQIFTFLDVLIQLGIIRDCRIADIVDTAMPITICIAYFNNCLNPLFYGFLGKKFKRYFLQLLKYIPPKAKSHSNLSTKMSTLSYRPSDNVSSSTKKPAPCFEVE
Histamine H1 receptor (Homo sapiens), sequence (P35367 whole entry): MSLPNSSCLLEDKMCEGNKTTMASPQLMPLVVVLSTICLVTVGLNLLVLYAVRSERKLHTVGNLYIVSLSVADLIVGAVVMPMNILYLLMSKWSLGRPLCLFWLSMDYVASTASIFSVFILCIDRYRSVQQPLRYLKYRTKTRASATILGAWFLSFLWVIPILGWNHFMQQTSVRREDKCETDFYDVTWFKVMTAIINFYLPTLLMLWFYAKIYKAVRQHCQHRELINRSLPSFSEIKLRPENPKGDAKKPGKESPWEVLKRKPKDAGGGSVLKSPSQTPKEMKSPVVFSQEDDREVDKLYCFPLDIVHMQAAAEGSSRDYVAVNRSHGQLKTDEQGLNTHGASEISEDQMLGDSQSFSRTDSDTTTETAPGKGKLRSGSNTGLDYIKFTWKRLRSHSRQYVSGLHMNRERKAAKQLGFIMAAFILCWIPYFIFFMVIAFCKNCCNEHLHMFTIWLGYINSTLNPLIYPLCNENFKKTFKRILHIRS
P2X purinoceptor 6, sequence (O15547 whole entry): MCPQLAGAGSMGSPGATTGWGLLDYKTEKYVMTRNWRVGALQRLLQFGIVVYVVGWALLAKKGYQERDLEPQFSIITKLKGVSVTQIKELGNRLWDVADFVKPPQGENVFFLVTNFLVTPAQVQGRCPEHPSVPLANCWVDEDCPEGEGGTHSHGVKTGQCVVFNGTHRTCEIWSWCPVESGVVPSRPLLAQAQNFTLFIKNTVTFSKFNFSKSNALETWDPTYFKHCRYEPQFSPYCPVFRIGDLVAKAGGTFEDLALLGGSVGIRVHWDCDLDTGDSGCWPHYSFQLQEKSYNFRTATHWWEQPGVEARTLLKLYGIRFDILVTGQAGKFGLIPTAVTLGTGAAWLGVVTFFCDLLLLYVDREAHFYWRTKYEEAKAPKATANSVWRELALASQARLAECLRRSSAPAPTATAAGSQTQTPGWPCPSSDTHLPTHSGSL
D(4) dopamine receptor (Homo sapiens), sequence (P21917 whole entry): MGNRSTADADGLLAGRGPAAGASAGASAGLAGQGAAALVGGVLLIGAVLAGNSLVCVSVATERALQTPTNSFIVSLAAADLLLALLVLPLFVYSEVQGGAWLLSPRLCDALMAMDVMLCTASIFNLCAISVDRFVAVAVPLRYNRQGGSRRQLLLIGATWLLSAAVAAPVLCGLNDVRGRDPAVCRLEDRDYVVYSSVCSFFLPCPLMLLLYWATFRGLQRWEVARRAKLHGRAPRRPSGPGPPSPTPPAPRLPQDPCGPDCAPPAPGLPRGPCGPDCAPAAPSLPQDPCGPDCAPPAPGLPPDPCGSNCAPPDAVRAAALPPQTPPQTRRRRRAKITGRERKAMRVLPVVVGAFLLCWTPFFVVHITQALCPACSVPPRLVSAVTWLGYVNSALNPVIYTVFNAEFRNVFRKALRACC

For `CC(=O)N1CCN(C[C@@H](C)NC(=O)c2cc3c(-c4ccccc4)nn(C)c3s2)CC1`, which Activity [1] is on record?
Its Activity is greater than 50%.

What about the Activity [2] of the same compound?
Its Activity is greater than 50%.

What about the Activity [3] of the same compound?
Its Activity is greater than 50%.

What about the Activity [4] of the same compound?
Its Activity is greater than 50%.

And the Activity [5]?
Its Activity is greater than 50%.

What about the Activity [6] of the same compound?
The Activity was greater than 50%.

And the Activity [7]?
The Activity was greater than 50%.

And the microsomal CLint [8]?
The microsomal CLint was 43.7 µL/min/mg.

What about the Activity [9] of the same compound?
The Activity was greater than 50%.

And the Activity [10]?
The Activity was greater than 50%.

And the Activity [11]?
The Activity was greater than 50%.

What about the Activity [12] of the same compound?
Its Activity is greater than 50%.

And the half-life [13]?
Its half-life is 1.6 h.

And the IC50 [14]?
Its IC50 is 31.6 nM.

What about the Activity [15] of the same compound?
The Activity was greater than 50%.

What about the Activity [16] of the same compound?
The Activity was greater than 50%.

What about the Activity [17] of the same compound?
The Activity was greater than 50%.

What about the IC50 [18] of the same compound?
Its IC50 is greater than 10000 nM.

What about the Activity [19] of the same compound?
The Activity was “Not Active”.

And the Activity [20]?
Its Activity is greater than 50%.

And the Activity [21]?
The Activity was greater than 50%.

What about the Activity [22] of the same compound?
Its Activity is greater than 50%.

And the Activity [23]?
The Activity was greater than 50%.

And the Activity [24]?
The Activity was greater than 50%.

And the inhibition at 2 h, 10 µM [25]?
The inhibition at 2 h, 10 µM was greater than 50%.

And the Activity [26]?
Its Activity is greater than 50%.

And the Activity [27]?
The Activity was greater than 50%.

And the Activity [28]?
Its Activity is greater than 50%.

And the Activity [29]?
Its Activity is greater than 50%.
